The values below come from patent US7767240B2, “Microbiological control in poultry processing” (priority 2001, dated 2010).

Each structure is given as a SMILES string.

Holding throughout (experiment): Individual bacteria count per bird at pH 8 (Example 3)
Common to all, as to assay type: cell-based

Test [1] relates to Escherichia coli ATCC 11229. The conditions noted are these: 25 birds per treatment, control 3055. As for the experimental part:
(§1) This group of tests was conducted to determine the effect of Clorox® bleach, Aquatize® biocide, and 1,3-dibromo-5,5-dimethylhydantoin (DBDMH) on carcass bacteria (Escherichia coli field strain) residual after 1,5-hour in a chill tank “soup”. Tests were conducted with soups at pH 7, pH 8 and pH 9 (adjusted by trisodium phosphate) for whole bird bacteria counts. Tests at pH 8 were conducted for individual bacteria counts.
(§2) In general the tests involved normal processing of 56-day-old birds and immersing the carcasses first in a warm bath containing 10^4 per mL Escherichia coli, 10^4 per mL Salmonella enteritidis, 10^4 per mL Pseudomonas aeruginosa, 10^4 per mL Campylobacter jejuni, and 10^4 per mL spoilage bacteria each from […] strains (Listeria monocytogenes and Shigella sonnei). The carcasses were then immersed in a chill tank “soup”, containing normal organic fluids (blood, fat, skin, and meat particles) and containing the microbiocides on the test.
(§3) The bacteria stock solution used for this group of tests was prepared by growing each bacteria sample in the appropriate broth shown in Table 12. […] The containers were observed and not allowed to develop a heavy, cloudy visual appearance which would indicate that the growth had developed for too long a period. Thus the solutions had the appearance of only being foggy or somewhat unclear.
(§4) The procedure used for whole bird wash sampling was as follows: • 1. All samples were kept at ≦50 degrees Fahrenheit following collection. • 2. Microbiological analyses of samples began within 24 hours of sample collection. • 3. Information on the individual sample identification, date of collection, time of collection (phase during shift), treatment group and location of sample point were recorded on each sample bottle. • 4. At each defined sample time, carcasses were taken individually from the processing line wearing latex or rubber gloves. The gloves were rinsed with alcohol between each collection. • 5. Any excess fluid was drained off from the carcass. Each individual carcass was transferred to a sterile stomacher bag. • 6. To each carcass contained in the sterile stomacher bag, 400 mL of Butterfield's Phosphate Diluent (BPD) was added while making sure to pour the BPD into the inside of the carcass cavity. The carcass was rinsed inside and out with a rocking motion for one minute (ca. 35 RPM). This was best done by grasping the broiler carcass with one hand and the closed top of the bag with the other then rocking with a reciprocal motion in a 18-24 inch arc, assuring that all surfaces (interior and exterior of the carcass) were rinsed. • 7. The rinse solutions from each stomacher bag was transferred into the sample bottles, taking care to ensure that the information on the date of collection, time of collection (phase during shift), treatment group and location of sampler point matched that of the sample. • 8. Each bottle was sealed with parafilm and placed into a styrene container with crushed or dry ice or frozen freezer packs for overnight delivery to a testing laboratory. • 9. All filled styrene containers were held in a chilled (not below freezing) area until within 1 to 2 hours of courier collection for shipment.
(§5) In greater detail the trial events and experimental design used in this group of tests were as follows: • a) Test microorganisms used were: • Escherichia coli ATCC 11229 • Pseudomonas aeruginosa ATCC 15442 • Salmonella enteritidis ATCC 13076 • Shigella sonnei ATCC 9290 • Listeria monocytogenes ATCC 7644 • Campylobacter jejuni ATCC 29428 • b) Test Procedure: All test strains were grown individually at 35° C. for 24 hours in the media specified in Table 12. Cells were harvested by centrifugation at 10,000×g for 10 minutes and washed twice with Butterfield's Phosphate Buffer (BPB of pH 7.2). Cells were resuspended in BPB to obtain a cell suspension of approximately 1.0×10^8 CFU/mL for each microorganism. […]

The subject of test [2] is Shigella sonnei ATCC 9290. The following applies: 25 birds per treatment, control 4551. As for the experimental part: as §1, §2, §3, §4, §5
The subject of test [3] is Campylobacter jejuni ATCC 29428. The conditions noted are these: 25 birds per treatment, control 1282. As for the experimental part:
as §1, §2, §3, §4, §5

Test [4] relates to Listeria monocytogenes ATCC 7644. The following applies: 25 birds per treatment, control 2463. Here is the method:
as §1, §2, §3, §4, §5

The test system of test [5] is Pseudomonas aeruginosa ATCC 15442. The following applies: 25 birds per treatment, control 2783. Here is the method:
as §1, §2, §3, §4, §5

In test [6] the test system is Salmonella enteritidis ATCC 13076. The following applies: 25 birds per treatment, control 3969. Here is the method:
as §1, §2, §3, §4, §5

On to `CC1(C)C(=O)N(Br)C(=O)N1Br` [DBDMH, 1,3-dibromo-5,5-dimethylhydantoin], for which the “average bacteria count per bird, E. coli” value in test [1] (10 ppm) is reported as 357 per bird; in test [1] (20 ppm) it was 4 per bird. The “average bacteria count per bird, S. sonnei” value in test [2] (10 ppm) is given as 456 per bird; in test [2] (20 ppm), 12 per bird. The “average bacteria count per bird, C. jejuni” value in test [3] (10 ppm) came out at 183 per bird; in test [3] (20 ppm), 15 per bird. The “average bacteria count per bird, L. monocytogenes” value in test [4] (10 ppm) worked out at 262 per bird; in test [4] (20 ppm), 6 per bird. For the same compound, the “average bacteria count per bird, P. aeruginosa” value stood at 289 per bird in test [5] (10 ppm) and 9 per bird in test [5] (20 ppm). For the same compound, the “average bacteria count per bird, S. enteritidis” value in test [6] (10 ppm) worked out at 560 per bird; in test [6] (20 ppm), 10 per bird.
